According to patent US5783568A, “Methods for treating cancer and other cell proliferative diseases” (Sugen, Inc., priority 1994, dated 1998):
“Also recorded” adds a separate entry of the source. Where two headings read alike, the source gives them in different places. Blank lines part the entries; values can stand above or below the molecule they belong to.

Assays:
heparin binding proteins = conditions: cited from earlier work
aFGF = target: T1, aFGF (Homo sapiens, UniProt P05230); assay: Isothermal titration calorimetry, binding to aFGF; conditions: ITC
T1 construct: made in house; host or cells: E. coli

FGFR2 (bek) [1] = assay: Tyrosine phosphorylation of FGFR2 in wild-type CHO-K1 cells; assay type: cell-based, human; conditions: excess of sucrose octasulfate (0.5, 50 or 500 μM) with aFGF and heparin
Protocol: (§1) Cells were lysed and the receptor was immunoprecipitated with anti-FGFR2 antibodies. Samples were then analyzed by SDS-PAGE, transferred to nitrocellulose membranes, and tyrosine-phosphorylated proteins were detected by immunoblotting with anti-phosphotyrosine antibodies.
(§2) Wild-type CHO cells (CHO-K1), as well as heparin sulfate-deficient mutant cells (CHO-pgsD-677) which were kindly provided by Prof. J. Esko (Esko, 1991), were cultured in F-12 medium containing 7.5% FBS, 1% Ampicillin/Streptomycin and 1% glutamine. Both CHO cell lines were co-transfected with the wild-type human FGFR2 (bek) DNA in the expression vector pMJ30 (Dionne et al., 1990) (40 μg/10 cm dish) and the pSVneo resistant gene (0.5 mg/10 cm dish), using the calcium phosphate method (Chen and Okayama, 1987). Geneticin (1 mg/ml) resistant clones were screened for expression of the receptor by immunoprecipitation and immunoblotting analysis using anti-FGFR2 antibodies.
(§3) Wild-type and mutant CHO cells were starved overnight in F-12 medium containing 0.5% FBS, and stimulated with either 0.1 nM aFGF, 50 nM heparin, or both, for 5 min at 37° C. Cells were lysed, immunoprecipitated with anti-FGFR2 antibodies and analyzed by immunoblotting with anti-phosphotyrosine (anti-PTyr) antibodies.

FGFR2 (bek) [2] = assay: Tyrosine phosphorylation of FGFR2 in mutant (HSPG-deficient) CHO-pgsD-677 cells; assay type: cell-based, human
Protocol: as §1, §2, §3

bFGF = conditions: cited from earlier work
tumor cells = conditions: Wellstein et al, 1991; cited from earlier work
K-FGF = conditions: cited from earlier work
gastric mucosa = conditions: cited from earlier work
EGF = conditions: cited from earlier work
VEGF = conditions: cell culture; Kendall & Thomas, 1993; cited from earlier work

T1 sequence (P05230 whole entry): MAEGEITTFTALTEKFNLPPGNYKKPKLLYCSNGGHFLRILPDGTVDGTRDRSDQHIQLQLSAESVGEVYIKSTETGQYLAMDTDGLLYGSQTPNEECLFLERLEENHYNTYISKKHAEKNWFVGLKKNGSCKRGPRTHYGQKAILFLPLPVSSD

Molecule: Cc1ccc(C(=O)Nc2ccc(S(=O)(=O)O)c3cc(S(=O)(=O)O)cc(S(=O)(=O)O)c23)cc1NC(=O)c1cccc(NC(=O)Nc2cccc(C(=O)Nc3cc(C(=O)Nc4ccc(S(=O)(=O)O)c5cc(S(=O)(=O)O)cc(S(=O)(=O)O)c45)ccc3C)c2)c1 [Suramin]
- effect on heparin binding proteins (heparin binding proteins): inducing microagglutination of the growth factor; also recorded: inhibit a variety of heparin binding proteins

- AH of aFGF binding to heparin / heparin analog (aFGF; heparins: means ± SD of two experiments): -5.8 ± 1.2 kcal mol^-1
- Kd (aFGF; single class of binding sites, heparins: means ± SD of two experiments, read-out: KD of aFGF binding to heparin / heparin analog): 3.4 ± 1.34 µM
- Kd (aFGF; KD of aFGF binding to sucrose octasulfate): 3.4 µM
Molecule: O=S(=O)(O)OC[C@H]1O[C@@](COS(=O)(=O)O)(O[C@H]2O[C@H](COS(=O)(=O)O)[C@@H](OS(=O)(=O)O)[C@H](OS(=O)(=O)O)[C@H]2OS(=O)(=O)O)[C@@H](OS(=O)(=O)O)[C@@H]1OS(=O)(=O)O [sucrose octasulfate]
- effect on aFGF/heparin-induced receptor activation, CHO cells that express HSPG (FGFR2 (bek) [1]): inhibitory
- effect on aFGF/heparin-induced receptor activation, mutant CHO cells (FGFR2 (bek) [2]; excess of sucrose octasulfate (0.5, 50 or 500 μM) with 0.1 nM aFGF and 50 nM heparin): inhibitory; also recorded: can be inhibited
- aFGF/heparin-induced dimerization and activation of FGFR (FGFR2 (bek) [2]; statement of Section 5.1 referring to Section 7.2.8): effectively inhibits aFGF/heparin-induced dimerization and activation of FGFR
- activation of FGFR by aFGF with sucrose octasulfate in place of heparin, mutant CHO cells (FGFR2 (bek) [2]; sucrose octasulfate plus aFGF, no heparin): does not enable aFGF to activate FGFR in the mutant (HSPG-deficient) CHO cells
- protection of bFGF from acid degradation (bFGF): protect the biologic activity of bFGF against acid degradation

Molecule: Pentosan polysulfate
- growth of tumor cells in vitro (tumor cells): selective inhibition of growth of tumor cells in vitro
- K-FGF-induced growth (K-FGF; Wellstein et al., 1991): inhibited the K-FGF- induced growth
- FGF-induced angiogenesis and tumor growth (K-FGF): inhibited the FGF-induced angiogenesis and tumor growth

Molecule: sucrose octakis (hydrogen sulfate) aluminum complex [sucralfate]
- ulcer healing / wound healing (gastric mucosa; in vivo): accelerates ulcer healing without reducing gastric acid; also recorded: elevates the level of available endogenous bFGF in the ulcer bed and stimulates angiogenesis and wound healing
- epithelial proliferation (gastric mucosa; through stimulation of gastric mucosal EGF and PDGF receptors): enhances epithelial proliferation
- protection of bFGF from acid degradation (bFGF): protects bFGF from degradation by acid
- affinity to bFGF (bFGF; compared with heparin): higher affinity binding to bFGF than heparin
- EGF binding (EGF): binds EGF in a pH-dependent manner

B1: soluble Flt-1: soluble Flt-1, one of the receptors for VEGF (protein, UniProt P17948 27-758, looked up)
extracellular domain: SKLKDPELSLKGTQHIMQAGQTLHLQCRGEAAHKWSLPEMVSKESERLSITKSACGRNGKQFCSTLTLNTAQANHTGFYSCKYLAVPTSKKKETESAIYIFISDTGRPFVEMYSEIPEIIHMTEGRELVIPCRVTSPNITVTLKKFPLDTLIPDGKRIIWDSRKGFIISNATYKEIGLLTCEATVNGHLYKTNYLTHRQTNTIIDVQISTPRPVKLLRGHTLVLNCTATTPLNTRVQMTWSYPDEKNKRASVRRRIDQSNSHANIFYSVLTIDKMQNKDKGLYTCRVRSGPSFKSVNTSVHIYDKAFITVKHRKQQVLETVAGKRSYRLSMKVKAFPSPEVVWLKDGLPATEKSARYLTRGYSLIIKDVTEEDAGNYTILLSIKQSNVFKNLTATLIVNVKPQIYEKAVSSFPDPALYPLGSRQILTCTAYGIPQPTIKWFWHPCNHNHSEARCDFCSNNEESFILDADSNMGNRIESITQRMAIIEGKNKMASTLVVADSRISGIYICIASNKVGTVGRNISFYITDVPNGFHVNLEKMPTEGEDLKLSCTVNKFLYRDVTWILLRTVNNRTMHYSISKQKMAITKEHSITLNLTIMNVSLQDSGTYACRARNVYTGEEILQKKEITIRDQEAPYLLRNLSDHTVAISSSTTLDCHANGVPEPQITWFKNNHKIQQEPGIILGPGSSTLFIERVTEEDEGVYHCKATNQKGSVESSAYLTVQGTSDKSNLE
modifications: extracellular domain
notes: soluble Flt-1, one of the receptors for VEGF
- VEGF activity (VEGF): can bind and inhibit the activity of VEGF in cell culture
